This is an account of results in paper PMC12040169 (PLOS Biology, 2025).

The nature of this series: in vitro. The settings on record: human, hela cells, % viability.

Structures are written as SMILES.

As for `O=C(Nc1ccccc1N1CCN(C(=O)c2ccc(Cl)cc2)CC1)c1ccc(-c2cccc([N+](=O)[O-])c2)o1` [CBK266398], the viability at 28.5 h, 10 µM came to 93.3%.
The same measure for `COC(=O)CCc1ccc(S(=O)(=O)N2CCCN(Cc3c[nH]c4ccc(OC)cc34)CC2)cc1` [CBK062985]: 98.1%; for `CC(C(=O)O)N(c1ccc(Cl)cc1)S(C)(=O)=O` (stereo not shown) [CBK267945]: 111%; for `O=C(O)C1CSC(c2ccccc2)N1` (stereo not shown) [CBK261008]: 114%.
The same measure for `c1cnc(-c2ccsc2)c(OC2CCCCC2)n1` [CBK106764]: 97.6%.
The same measure for `CC(C)CC(C(=O)Nc1ccc(C2CCCC2)cc1)N1CCN(C)CC1` (stereo not shown) [CBK024386C]: 87%.
As to `Cc1ccc(C)c(C(=O)C2=C(O)C(=O)N(CCN(C)C)C2c2ccc(O)cc2)c1` (stereo not shown) [CBK265740], the viability at 28.5 h, 10 µM worked out at 102%.
Consider `CC1(C)CC(=O)C2=C(C1)NC(Nc1nc3ccccc3s1)=NC2c1cccnc1` (stereo not shown) [CBK270025], for which the viability at 28.5 h, 10 µM is 99.4%.
For the compound `CN(CC(=O)N1CCN(Cc2ccc3c(c2)OCO3)CC1)S(=O)(=O)c1ccccc1` [CBK265791], the viability at 28.5 h, 10 µM came out at 87%.
The same measure for `Cc1c(Cl)c([N+](=O)[O-])nn1CC(=O)N1CCN(C)CC1` [CBK261719]: 89.4%.
The result for `CCOC(=O)c1c(NC(=O)CSc2ncnc3sc(C)c(C)c23)sc(C)c1C` [CBK266440] reads 118%.
The same measure for `O=C(Nc1cccc(Cl)c1)c1nnc(C(=O)NC2CCCCC2)s1` [CBK294406]: 92.6%; for `N#CCCN(Cc1ccccc1)C(=O)c1ccccc1[N+](=O)[O-]` [CBK264434]: 92.6%; for `O=[N+]([O-])c1ccc(N2CCN(CCO)CC2)cc1NCc1ccc(Cl)cc1` [CBK042201]: 99.6%.
On to `Cc1c(-c2cc(-c3cnn(C)c3C)[nH]n2)cnn1C` [CBK288013], for which the viability at 28.5 h, 10 µM worked out at 76%.
Turning to `Cc1cc(C(=O)O)cc(S(=O)(=O)N2CCOCC2)c1C` [CBK264497], the viability at 28.5 h, 10 µM was 89.5%.
The result for `NS(=O)(=O)c1ccc(CNC(=O)C(Sc2ccccc2)c2ccccc2)cc1` (stereo not shown) [CBK264355] reads 91.5%; that for `CCOC(=O)c1cnn2c(O)cc(CN3CCCc4ccccc43)nc12` [CBK305694], 118%.
On to `CCC(CNC(=O)c1cccc(C)n1)N1CCCC1` (stereo not shown) [CBK304803], for which the viability at 28.5 h, 10 µM was 116%.
As to `CN(C)c1cccc(Nc2ccc(-c3ccc(CCC(=O)O)cc3)cn2)c1` [CBK036918], the viability at 28.5 h, 10 µM came to 97.2%.
The same measure for `O=C(c1cccnc1)N1CCN(c2ncccn2)CC1` [CBK144516]: 95.4%; for `O=c1cc(N2CCCC2)cnn1Cc1cscn1` [CBK304635]: 84.1%.
The same measure for `Cc1ccc(NC(=O)/C=C/C(=O)O)c(NC(=O)c2ccccc2)c1` [CBK286563]: 97.3%.
The result for `CC(=O)NCc1cccc(-c2cc(C(=O)NCC3CN(Cc4ccccc4)CCO3)cnc2-c2ccc(Cl)cc2)c1` (stereo not shown) [CBK164416T] reads 88.5%.
On to `O=c1c(-c2ccccc2)c(C(F)(F)F)oc2c(CN3CCN(Cc4ccccc4)CC3)c(O)ccc12` [CBK265808], for which the viability at 28.5 h, 10 µM was 95%.
The result for `COc1cc(/C=N/n2cnnc2)ccc1OCc1cccc(C(=O)O)c1` [CBK264249] reads 108%.
For the compound `CC1CCc2c(sc(NC(=O)c3cccs3)c2C(=O)N(C)C)C1` (stereo not shown) [CBK307100], the viability at 28.5 h, 10 µM is 90.9%.
The same measure for `COc1ccc([C@@]23CC[C@@H](NC(=O)Nc4cccc5nsnc45)C[C@@H]2N(C)CC3)cc1OC` [CBK038874T]: 86.8%.
The same measure for `CC(C)Nc1nc2ccccc2nc1Sc1cccc(C(=O)O)c1` [CBK115955T]: 104%; for `CCc1nn(CC(=O)N2CCCC2)c(=O)c2cc3oc(C)cc3n12` [CBK283584]: 110%.
For the compound `O=C(O)c1ccc(S(=O)(=O)c2ccc(C(=O)O)c(C(=O)O)c2)cc1C(=O)O` [CBK022872], the viability at 28.5 h, 10 µM was determined as 93.1%.
The same measure for `O=C(Cn1cccnc1=O)NC(c1ccc2c(c1)CCO2)C1CC(O)C1` (stereo not shown) [CBK306595]: 75.3%.
For the compound `O=C(/C=C/c1ccco1)Nc1sc2c(c1C(=O)O)CCC2` [CBK263181], the viability at 28.5 h, 10 µM was found to be 97.7%.
Consider `OC(CSc1ncnc2sc3c(c12)CCC3)Cn1cccn1` (stereo not shown) [CBK304149], for which the viability at 28.5 h, 10 µM amounted to 72.3%.
The same measure for `O=C(Nc1cccc(C(F)(F)F)c1)N[C@H]1CO[C@H]2[C@@H]1OC[C@H]2O` [CBK289476]: 102%.
The result for `Cc1nc(C)c(C(=O)N2CCc3[nH]c4ccccc4c3C2)o1` [CBK281873] reads 110%.
The result for `COc1ccc(-c2cnc3[nH]c(=O)n([C@H](CO)C(C)C)c3n2)c(OC)c1OC` [CBK065008] reads 99.1%; that for `Cc1cc2c(s1)c1cnn(CC(=O)N3CCCC3)c(=O)c1n2C` [CBK284153], 85.6%.
For the compound `COc1cccc(CC2(C#N)CC2)c1` [CBK003907], the viability at 28.5 h, 10 µM was 87.5%.
The result for `CCOC(=O)CN1CCC(Oc2cncc(OCc3ccc(Cl)c(Cl)c3)n2)C1` (stereo not shown) [CBK084432] reads 91.7%; that for `CC(CC(=O)O)CC(=O)Nc1cccc(C(=O)O)c1` (stereo not shown) [CBK265651], 99.1%; that for `CSCCCNC(=O)N1CCN(c2cc(C(F)(F)F)ccn2)CC1` [CBK156433], 92.3%.
The same measure for `CCC(=O)N1C2CCC1c1cnc3cc(-c4ccco4)nn3c1C2` (stereo not shown) [CBK284384]: 92.7%.
The result for `O=C1NC2(CCc3ccccc31)CCN(C(=O)c1cccnc1)C2` (stereo not shown) [CBK283335] reads 96.5%.
Turning to `O=C(NC1CCc2ccccc21)N1CCN(Cc2ccccc2)CC1` (stereo not shown) [CBK155662], the viability at 28.5 h, 10 µM is 97%.
The result for `Cc1n[nH]c(O)c1C(c1ccc(OC(=O)c2ccccc2Cl)cc1)c1c(C)n[nH]c1O` [CBK264520] reads 101%; that for `Cc1ccc(NC(=O)CCc2cccnc2)c(C)n1` [CBK200386], 101%.
The same measure for `CCCNC(C)C(=O)Nc1c(C)csc1C(=O)O` (stereo not shown) [CBK287064]: 113%; for `CCN1CCCC1CNC(=O)C1(O)c2ccccc2NC(=O)N1c1ccccc1` (stereo not shown) [CBK288554]: 90.5%; for `COc1cc2c(cc1NC(=O)CSc1nc3ccccc3[nH]1)oc1ccccc12` [CBK265153]: 100%.
The same measure for `CCOc1ncccc1NC(=O)N(CC1CCOC1)C1CC1` (stereo not shown) [CBK305077]: 94%; for `CCN(CC)CCN1CCN(c2cc(-c3ccsc3)ncn2)CC1` [CBK036973]: 93.7%.
For `O=C(O)c1c(NS(=O)(=O)Cc2ccccc2[N+](=O)[O-])sc2c1CCCC2` [CBK024819], the viability at 28.5 h, 10 µM is 106%.
The same measure for `Cc1cccc(CN2CCC(NC(=O)NCc3ccn(C)c3)CC2)c1` [CBK305259]: 105%; for `Clc1ccc(-n2ccnc2)cc1` [CBK012658]: 107%.
On to `Cc1ccc(S(=O)(=O)N2CCOCC2)cc1C(=O)O` [CBK262256], for which the viability at 28.5 h, 10 µM turned out to be 115%.
The same measure for `O=C(NCc1ccc(OC2CCNCC2)cc1)c1cnccn1` [CBK036359T]: 104%; for `O=C(CSc1nnc2ccc(-c3ccccc3)nn12)NCc1ccccc1` [CBK287677]: 67.6%; for `O=C(Cn1c(-c2cccs2)cc2cccnc21)N1CCC(O)CC1` [CBK282458]: 113%.
The same measure for `Cc1nc(N/C(=N/C(=O)c2ccccc2)NC(=O)c2ccccc2)nc2ccccc12` [CBK262529]: 103%; for `CC(NS(=O)(=O)c1ccc([N+](=O)[O-])cc1)C(=O)O` (stereo not shown) [CBK261834]: 90.5%; for `Cc1ccc(C(=O)n2nc(-c3cccnc3)nc2N)cc1` [CBK288172]: 97.4%.
The result for `O=S(=O)(Nc1cc(OC2CCNCC2)c2occc2c1)c1c(Cl)cccc1Cl` [CBK074989C] reads 64.3%; that for `COc1ccc(Nc2ccc(-c3ccc(C(=O)O)cc3)cn2)cc1` [CBK037654], 95.2%; that for `Cc1cccc(C)c1NC(=O)CN1CCC(Oc2cncc(OCCN3CCOCC3)n2)C1` (stereo not shown) [CBK084489], 95.5%.
Turning to `Cc1cc(C)n2nc(CC(=O)NCCCn3cc(Cl)cn3)nc2n1` [CBK307276], the viability at 28.5 h, 10 µM amounted to 84.3%.
The same measure for `COc1cc(C(=O)N2CCC3(CC2)CC(=O)c2cc(-c4ccc(N(C)C)cc4)ccc2O3)cc(OC)c1C` [CBK170663]: 108%; for `CCN(CC)Cc1c(O)ccc2c(C#N)c(C)n(-c3ccccc3)c12` [CBK261527C]: 94.9%.
Consider `O=S(=O)(Nc1ccc2nsnc2c1)c1cccc(C(F)(F)F)c1` [CBK062221], for which the viability at 28.5 h, 10 µM is 106%.
The same measure for `O=C(Nc1ccccc1Cl)N1CCN(CCN2CCOCC2)CC1` [CBK155824]: 89.4%; for `Nc1ncc(-c2cccc(Br)c2)nc1NC1CCOCC1` [CBK063854]: 108%; for `COc1ccc(-c2ccc3c(c2)C(=O)N2CC[C@H](NC(=O)CCC(=O)O)[C@H]2C(=O)N3)cc1` [CBK289331]: 84.4%.
The same measure for `COc1ccc(Nc2cc(-c3ccco3)ncn2)cc1OC` [CBK090822]: 99.5%; for `CC(=O)Nc1ccc(Nc2ncnc3c2cnn3-c2ccc(C)cc2C)cc1` [CBK265803]: 116%; for `O=C(O)CCCNS(=O)(=O)c1ccc(I)cc1` [CBK269160]: 102%.
The result for `CC(=O)Nc1ccc(C(=O)N2CCCC(c3cccc(Cc4ccccc4Cl)n3)C2)cc1` (stereo not shown) [CBK286126] reads 109%; that for `CC(C)NC(=O)[C@H]1CN2CCC1C[C@@H]2Cn1cc(C2(O)CCCC2)nn1` (stereo partly shown) [CBK289090], 103%; that for `Cc1cc(=O)cc(C(=O)NC2CCN(c3ncccc3C#N)CC2)o1` [CBK307240], 86.2%.
Regarding `CCn1c(C)nnc1SCCNc1cc(C(C)C)nc2ccnn12` [CBK306829], the viability at 28.5 h, 10 µM is 81.4%.
